Results reported in ChEMBL document CHEMBL1821675, “The selective P-TEFb inhibitor CAN508 targets angiogenesis” (Eur J Med Chem, 2011).
The source made the active and inactive calls. The rule behind the calls is not given here.

Columns and labels:
[1] = target: CDK9/cyclin T1 (Homo sapiens) (UniProt O60563+P50750); experiment: Inhibition of CDK9/cyclin T assessed as residual activity at 10 uM by radioactivity assay in presence of 50 uM ATP; assay type: protein-complex assay
[2] = target: Aurora kinase A (Homo sapiens) (UniProt O14965); experiment: Inhibition of Aurora A assessed as residual activity at 10 uM by radioactivity assay in presence of 5 uM ATP
Sequence of Aurora kinase A (Homo sapiens) (O14965 whole entry): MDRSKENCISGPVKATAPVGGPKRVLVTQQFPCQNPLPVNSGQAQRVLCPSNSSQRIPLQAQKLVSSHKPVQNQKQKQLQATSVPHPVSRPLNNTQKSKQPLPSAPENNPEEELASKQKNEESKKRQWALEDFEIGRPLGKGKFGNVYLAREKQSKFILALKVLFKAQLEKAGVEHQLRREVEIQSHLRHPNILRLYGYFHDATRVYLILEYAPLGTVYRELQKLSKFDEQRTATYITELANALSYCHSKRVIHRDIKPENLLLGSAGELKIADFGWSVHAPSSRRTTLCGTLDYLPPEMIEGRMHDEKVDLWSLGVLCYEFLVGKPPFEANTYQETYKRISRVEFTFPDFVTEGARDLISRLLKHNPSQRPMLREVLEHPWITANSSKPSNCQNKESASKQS

[3] = target: Eukaryotic elongation factor 2 kinase (Homo sapiens) (UniProt O00418); experiment: Inhibition of EF2K assessed as residual activity at 10 uM by radioactivity assay in presence of 5 uM ATP
Sequence of Eukaryotic elongation factor 2 kinase (Homo sapiens) (O00418 whole entry): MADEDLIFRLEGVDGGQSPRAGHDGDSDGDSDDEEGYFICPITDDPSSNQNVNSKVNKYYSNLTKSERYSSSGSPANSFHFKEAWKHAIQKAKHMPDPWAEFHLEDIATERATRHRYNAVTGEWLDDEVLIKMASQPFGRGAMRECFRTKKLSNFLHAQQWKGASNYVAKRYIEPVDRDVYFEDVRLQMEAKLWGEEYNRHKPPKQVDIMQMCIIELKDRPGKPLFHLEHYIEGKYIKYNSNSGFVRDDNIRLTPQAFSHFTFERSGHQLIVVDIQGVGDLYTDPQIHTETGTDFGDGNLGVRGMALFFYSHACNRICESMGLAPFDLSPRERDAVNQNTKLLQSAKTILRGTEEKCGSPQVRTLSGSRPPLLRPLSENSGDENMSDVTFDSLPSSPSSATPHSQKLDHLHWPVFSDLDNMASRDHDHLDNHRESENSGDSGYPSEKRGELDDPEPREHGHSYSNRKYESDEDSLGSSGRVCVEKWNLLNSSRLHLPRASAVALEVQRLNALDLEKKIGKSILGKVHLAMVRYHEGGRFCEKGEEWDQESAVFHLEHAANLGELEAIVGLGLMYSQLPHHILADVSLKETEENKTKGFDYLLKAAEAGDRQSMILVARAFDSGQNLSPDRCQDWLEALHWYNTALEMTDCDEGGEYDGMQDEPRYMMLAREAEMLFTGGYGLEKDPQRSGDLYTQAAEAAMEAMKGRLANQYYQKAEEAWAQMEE

[4] = target: Serine/threonine-protein kinase PAK 4 (Homo sapiens) (UniProt O96013); experiment: Inhibition of PAK4 assessed as residual activity at 10 uM by radioactivity assay in presence of 5 uM ATP
[5] = target: Misshapen-like kinase 1 (Homo sapiens) (UniProt Q8N4C8); experiment: Inhibition of MINK1 assessed as residual activity at 10 uM by radioactivity assay in presence of 50 uM ATP
[6] = target: Ephrin type-B receptor 4 (Homo sapiens) (UniProt P54760); experiment: Inhibition of EPH-B4 assessed as residual activity at 10 uM by radioactivity assay in presence of 50 uM ATP
NCI-H226 = experiment: Cytotoxicity against human NCI-H226 cells; assay type: functional
HOP-92 = experiment: Cytotoxicity against human HOP92 cells; assay type: functional
[7] = target: Mitogen-activated protein kinase 13 (Homo sapiens) (UniProt O15264); experiment: Inhibition of p38delta MAPK assessed as residual activity at 10 uM by radioactivity assay in presence of 5 uM ATP
[8] = target: Tyrosine-protein kinase SYK (Homo sapiens) (UniProt P43405); experiment: Inhibition of SYK assessed as residual activity at 10 uM by radioactivity assay in presence of 20 uM ATP
[9] = target: Serine/threonine-protein kinase 3 (Homo sapiens) (UniProt Q13188); experiment: Inhibition of MST2 assessed as residual activity at 10 uM by radioactivity assay in presence of 20 uM ATP
Sequence of Serine/threonine-protein kinase 3 (Homo sapiens) (Q13188 whole entry): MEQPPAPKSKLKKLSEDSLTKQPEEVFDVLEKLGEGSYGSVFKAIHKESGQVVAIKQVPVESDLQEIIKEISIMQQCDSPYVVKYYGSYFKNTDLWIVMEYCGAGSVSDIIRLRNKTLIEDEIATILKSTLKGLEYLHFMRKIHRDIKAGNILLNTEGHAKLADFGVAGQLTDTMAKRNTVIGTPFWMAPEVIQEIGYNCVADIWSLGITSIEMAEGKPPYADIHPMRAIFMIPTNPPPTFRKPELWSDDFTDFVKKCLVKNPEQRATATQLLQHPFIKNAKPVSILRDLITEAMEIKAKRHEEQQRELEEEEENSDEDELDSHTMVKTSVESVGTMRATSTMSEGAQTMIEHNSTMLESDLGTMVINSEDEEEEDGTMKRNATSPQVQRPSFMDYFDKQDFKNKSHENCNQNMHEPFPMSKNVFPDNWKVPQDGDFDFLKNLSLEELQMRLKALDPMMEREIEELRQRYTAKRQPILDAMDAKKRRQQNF

[10] = target: MAP kinase-activated protein kinase 5 (Homo sapiens) (UniProt Q8IW41); experiment: Inhibition of PRAK assessed as residual activity at 10 uM by radioactivity assay in presence of 20 uM ATP
BT-549 = experiment: Cytotoxicity against human BT549 cells; assay type: functional
MCF7 [11] = experiment: Inhibition of RNA synthesis in human MCF7 cells assessed as decrease in [3H] Uridine incorporation after 2 hrs by scintillation counting; assay type: functional, cell-based
[12] = target: Mitogen-activated protein kinase 8 (Homo sapiens) (UniProt P45983); experiment: Inhibition of JNK1A1 assessed as residual activity at 10 uM by radioactivity assay in presence of 20 uM ATP
Sequence of Mitogen-activated protein kinase 8 (Homo sapiens) (P45983 whole entry): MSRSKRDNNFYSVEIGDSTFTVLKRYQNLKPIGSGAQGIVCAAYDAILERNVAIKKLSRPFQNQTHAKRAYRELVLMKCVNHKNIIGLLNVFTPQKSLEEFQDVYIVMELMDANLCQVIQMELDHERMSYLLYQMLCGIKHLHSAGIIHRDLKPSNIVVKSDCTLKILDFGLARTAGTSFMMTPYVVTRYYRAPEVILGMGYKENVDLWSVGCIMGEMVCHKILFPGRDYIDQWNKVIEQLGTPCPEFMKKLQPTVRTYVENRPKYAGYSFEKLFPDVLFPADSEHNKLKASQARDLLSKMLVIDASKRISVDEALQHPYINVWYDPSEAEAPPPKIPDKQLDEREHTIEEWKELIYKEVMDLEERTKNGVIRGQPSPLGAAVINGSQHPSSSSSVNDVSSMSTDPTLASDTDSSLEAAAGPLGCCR

[13] = target: Serine/threonine-protein kinase pim-2 (Homo sapiens) (UniProt Q9P1W9); experiment: Inhibition of PIM2 assessed as residual activity at 10 uM by radioactivity assay in presence of 5 uM ATP
Sequence of Serine/threonine-protein kinase pim-2 (Homo sapiens) (Q9P1W9 whole entry, looked up): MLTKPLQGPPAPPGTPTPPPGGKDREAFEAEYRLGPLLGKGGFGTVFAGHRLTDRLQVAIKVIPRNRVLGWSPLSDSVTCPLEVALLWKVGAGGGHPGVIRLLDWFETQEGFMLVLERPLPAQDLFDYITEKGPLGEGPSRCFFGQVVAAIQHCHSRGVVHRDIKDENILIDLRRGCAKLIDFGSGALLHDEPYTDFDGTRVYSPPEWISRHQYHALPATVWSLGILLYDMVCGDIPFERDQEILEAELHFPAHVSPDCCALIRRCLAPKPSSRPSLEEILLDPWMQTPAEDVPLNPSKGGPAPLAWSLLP

[14] = target: Fibroblast growth factor receptor 1 (Homo sapiens) (UniProt P11362); experiment: Inhibition of FGF-R1 assessed as residual activity at 10 uM by radioactivity assay in presence of 20 uM ATP
[15] = target: MAP kinase-interacting serine/threonine-protein kinase 2 (Homo sapiens) (UniProt Q9HBH9); experiment: Inhibition of MNK2alpha assessed as residual activity at 10 uM by radioactivity assay in presence of 50 uM ATP
[16] = target: Mitogen-activated protein kinase 11 (Homo sapiens) (UniProt Q15759); experiment: Inhibition of p38beta MAPK assessed as residual activity at 10 uM by radioactivity assay in presence of 20 uM ATP
Sequence of Mitogen-activated protein kinase 11 (Homo sapiens) (Q15759 whole entry): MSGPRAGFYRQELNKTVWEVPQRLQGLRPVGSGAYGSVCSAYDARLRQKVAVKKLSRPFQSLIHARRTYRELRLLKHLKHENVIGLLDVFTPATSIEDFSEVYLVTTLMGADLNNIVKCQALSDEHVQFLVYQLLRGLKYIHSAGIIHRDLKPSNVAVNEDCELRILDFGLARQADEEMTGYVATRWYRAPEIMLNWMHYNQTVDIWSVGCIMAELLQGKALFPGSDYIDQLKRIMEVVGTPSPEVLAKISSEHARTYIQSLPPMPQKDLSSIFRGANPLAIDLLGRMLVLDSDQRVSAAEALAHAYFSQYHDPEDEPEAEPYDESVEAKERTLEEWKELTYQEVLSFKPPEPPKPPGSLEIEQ

KM12 = experiment: Cytotoxicity against human KM12 cells; assay type: functional
[17] = target: Rho-associated protein kinase 2 (Homo sapiens) (UniProt O75116); experiment: Inhibition of ROCK2 assessed as residual activity at 10 uM by radioactivity assay in presence of 20 uM ATP
[18] = target: Serine/threonine-protein kinase Nek6 (Homo sapiens) (UniProt Q9HC98); experiment: Inhibition of NEK6 assessed as residual activity at 10 uM by radioactivity assay in presence of 50 uM ATP
Sequence of Serine/threonine-protein kinase Nek6 (Homo sapiens) (Q9HC98 whole entry): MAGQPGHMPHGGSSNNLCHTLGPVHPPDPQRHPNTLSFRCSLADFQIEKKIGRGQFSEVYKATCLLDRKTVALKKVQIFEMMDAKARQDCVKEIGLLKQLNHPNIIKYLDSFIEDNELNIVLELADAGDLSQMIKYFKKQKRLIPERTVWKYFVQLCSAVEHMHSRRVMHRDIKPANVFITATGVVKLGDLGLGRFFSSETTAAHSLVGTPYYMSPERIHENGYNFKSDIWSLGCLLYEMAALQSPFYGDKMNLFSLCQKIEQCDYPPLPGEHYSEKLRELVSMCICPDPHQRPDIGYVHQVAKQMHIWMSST

MOLT-4 = experiment: Cytotoxicity against human MOLT4 cells; assay type: functional
U-251 = experiment: Cytotoxicity against human U251 cells; assay type: functional
[19] = target: Serine/threonine-protein kinase Nek2 (Homo sapiens) (UniProt P51955); experiment: Inhibition of NEK2a assessed as residual activity at 10 uM by radioactivity assay in presence of 50 uM ATP
Sequence of Serine/threonine-protein kinase Nek2 (Homo sapiens) (P51955 whole entry): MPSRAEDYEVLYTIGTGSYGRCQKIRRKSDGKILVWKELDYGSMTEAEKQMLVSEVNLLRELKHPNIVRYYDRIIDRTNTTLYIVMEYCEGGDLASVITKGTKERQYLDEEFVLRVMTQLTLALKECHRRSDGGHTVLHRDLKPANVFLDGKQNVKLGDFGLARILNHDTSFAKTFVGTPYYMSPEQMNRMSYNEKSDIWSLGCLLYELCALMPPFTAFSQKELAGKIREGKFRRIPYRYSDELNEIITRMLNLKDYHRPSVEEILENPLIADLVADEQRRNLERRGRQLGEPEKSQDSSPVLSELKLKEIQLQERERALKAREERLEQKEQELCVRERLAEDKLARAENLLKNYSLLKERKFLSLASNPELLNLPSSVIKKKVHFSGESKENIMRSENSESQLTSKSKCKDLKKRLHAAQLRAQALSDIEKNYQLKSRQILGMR

DU-145 = experiment: Decrease in VEGF expression in human DU145 cells at >10 uM after 24 hrs by sandwich ELISA; assay type: functional, cell-based
[20] = Antiangiogenic activity in VEGF-stimulated HMEC1 assessed as reduction in median length of tube at 40 uM after 16 hrs by photographic analysis; assay type: functional, Homo sapiens, HMEC-1; design: scale not given: the % may be the effect or the level left
SNB-19 = experiment: Cytotoxicity against human SNB19 cells; assay type: functional
A549 = experiment: Cytotoxicity against human A549 cells; assay type: functional
M14 = experiment: Cytotoxicity against human M14 cells; assay type: functional
[21] = target: Mitogen-activated protein kinase 10 (Homo sapiens) (UniProt P53779); experiment: Inhibition of JNK3alpha1 assessed as residual activity at 10 uM by radioactivity assay in presence of 20 uM ATP
IGROV-1 = experiment: Cytotoxicity against human IGROV1 cells; assay type: functional
[22] = target: Mitogen-activated protein kinase 1 (Homo sapiens) (UniProt P28482); experiment: Inhibition of ERK2 assessed as residual activity at 10 uM by radioactivity assay in presence of 20 uM ATP
[23] = target: MAP kinase-activated protein kinase 3 (Homo sapiens) (UniProt Q16644); experiment: Inhibition of MAPKAP-K3 assessed as residual activity at 10 uM by radioactivity assay in presence of 20 uM ATP
[24] = Cytotoxicity against human Hs 578T cells; assay type: functional
[25] = target: Ephrin type-A receptor 4 (Homo sapiens) (UniProt P54764); experiment: Inhibition of EPHA4 assessed as residual activity at 10 uM by radioactivity assay in presence of 50 uM ATP
Sequence of Ephrin type-A receptor 4 (Homo sapiens) (P54764 whole entry): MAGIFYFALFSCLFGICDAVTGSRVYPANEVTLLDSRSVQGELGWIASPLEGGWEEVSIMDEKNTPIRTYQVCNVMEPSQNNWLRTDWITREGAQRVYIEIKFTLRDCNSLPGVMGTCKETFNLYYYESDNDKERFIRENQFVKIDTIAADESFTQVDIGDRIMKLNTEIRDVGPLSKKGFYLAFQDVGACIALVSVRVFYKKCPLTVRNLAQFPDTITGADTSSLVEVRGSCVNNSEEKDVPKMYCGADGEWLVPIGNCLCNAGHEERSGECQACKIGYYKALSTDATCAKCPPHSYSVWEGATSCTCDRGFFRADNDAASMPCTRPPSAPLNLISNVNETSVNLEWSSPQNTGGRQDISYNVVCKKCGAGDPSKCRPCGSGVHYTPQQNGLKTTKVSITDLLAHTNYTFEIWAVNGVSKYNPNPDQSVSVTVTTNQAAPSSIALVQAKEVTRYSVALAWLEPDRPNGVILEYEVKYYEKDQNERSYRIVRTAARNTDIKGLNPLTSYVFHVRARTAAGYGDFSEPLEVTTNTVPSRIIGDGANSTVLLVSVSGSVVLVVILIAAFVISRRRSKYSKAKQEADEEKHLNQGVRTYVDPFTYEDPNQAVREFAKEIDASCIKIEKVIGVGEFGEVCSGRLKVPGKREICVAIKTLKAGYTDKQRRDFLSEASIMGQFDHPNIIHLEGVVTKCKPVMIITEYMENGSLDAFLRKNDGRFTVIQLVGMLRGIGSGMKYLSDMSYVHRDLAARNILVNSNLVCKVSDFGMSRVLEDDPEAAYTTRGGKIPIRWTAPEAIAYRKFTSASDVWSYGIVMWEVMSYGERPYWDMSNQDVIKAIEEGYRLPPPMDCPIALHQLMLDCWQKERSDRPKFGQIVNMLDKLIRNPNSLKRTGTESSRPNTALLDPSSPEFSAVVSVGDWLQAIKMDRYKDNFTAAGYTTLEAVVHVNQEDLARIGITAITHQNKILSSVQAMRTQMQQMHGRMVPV

[26] = target: High affinity nerve growth factor receptor (Homo sapiens) (UniProt P04629); experiment: Inhibition of TrkA assessed as residual activity at 10 uM by radioactivity assay in presence of 20 uM ATP
HCC 2998 = experiment: Cytotoxicity against human HCC2998 cells; assay type: functional
[27] = target: Serine/threonine-protein kinase Chk1 (Homo sapiens) (UniProt O14757); experiment: Inhibition of CHK1 assessed as residual activity at 10 uM by radioactivity assay in presence of 20 uM ATP
Sequence of Serine/threonine-protein kinase Chk1 (Homo sapiens) (O14757 whole entry): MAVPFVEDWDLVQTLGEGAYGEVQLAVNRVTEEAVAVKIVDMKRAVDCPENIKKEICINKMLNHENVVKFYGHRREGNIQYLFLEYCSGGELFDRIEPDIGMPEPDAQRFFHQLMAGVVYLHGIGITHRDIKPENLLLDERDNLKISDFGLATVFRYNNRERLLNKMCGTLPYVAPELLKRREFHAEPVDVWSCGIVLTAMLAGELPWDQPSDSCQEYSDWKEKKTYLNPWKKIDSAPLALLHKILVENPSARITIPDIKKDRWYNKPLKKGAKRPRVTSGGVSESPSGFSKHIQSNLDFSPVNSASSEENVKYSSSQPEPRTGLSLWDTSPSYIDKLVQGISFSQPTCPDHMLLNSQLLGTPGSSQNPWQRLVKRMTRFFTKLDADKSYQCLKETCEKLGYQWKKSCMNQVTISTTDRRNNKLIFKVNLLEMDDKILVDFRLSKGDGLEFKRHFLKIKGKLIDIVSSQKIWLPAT

MCF7 [28] = experiment: Cytotoxicity against human MCF7 cells; assay type: functional
SF-539 = experiment: Cytotoxicity against human SF539 cells; assay type: functional
OVCAR-8 = experiment: Cytotoxicity against human OVCAR8 cells; assay type: functional
NCI-H322M = experiment: Cytotoxicity against human NCI-H322M cells; assay type: functional

In the case of `Nc1n[nH]c(N)c1/N=N/c1ccc(O)cc1`, the Activity [1] is reported as 12%, the Activity [2] is reported as 107% and the Activity [3] is reported as 106%. The Activity [4] was 79%, the Activity [5] was 29% and the Activity [6] was 99%. The GI50 (NCI-H226) was 17.7 µM, the GI50 (HOP-92) was 18.2 µM and the Activity [7] was 77%. The Activity [8] was 94%, the Activity [9] was 57% and the Activity [10] was 43%. The GI50 (BT-549) was 14 µM, the IC50 (MCF7 [11]) was 15 µM and the Activity [12] was 87%. For the same molecule, the Activity [13] was 69%, the Activity [14] was 68% and the Activity [15] was 39%. For the same molecule, the Activity [16] was 102%, the GI50 (KM12) was 17.1 µM and the Activity [17] was 51%. It also gave an Activity [18] of 114%, a GI50 (MOLT-4) of 13.5 µM and a GI50 (U-251) of 21.2 µM. For the same molecule, the Activity [19] was 106%, the Activity (DU-145) was “Active” and the Activity [20] was 50%. The GI50 (SNB-19) was 29.9 µM, the GI50 (A549) was 22.5 µM and the GI50 (M14) was 15.9 µM. It also gave an Activity [21] of 108%, a GI50 (IGROV-1) of 20.6 µM and an Activity [22] of 106%. The Activity [23] was 89%, the GI50 [24] was 21.8 µM and the Activity [25] was 93%. For the same molecule, the Activity [26] was 98%, the GI50 (HCC 2998) was 29.4 µM and the Activity [27] was 98%. It also gave a GI50 (MCF7 [28]) of 23.5 µM, a GI50 (SF-539) of 13.2 µM and a GI50 (OVCAR-8) of 18 µM. It also gave a GI50 (NCI-H322M) of 25.1 µM.
